Patent US8702939B2, “Electrotaxis methods and devices” (McMaster University, priority 2010, dated 2014)

Legend:
Format in all cases: in vivo, Caenorhabditis elegans
C. elegans [1] = test: microfluidic electrotaxis assay of toxin/drug-exposed worms (U-turn, head movement, speed); conditions: for movement speed response of toxin-treated animals: abnormal = slower than 215 μm/sec, 3V/cm
Method: The toxins 6-OHDA (catalog no. 162957), Rotenone (catalog no. R8875) and Acetaminophen (catalog no. A7085) were obtained from Sigma Aldrich. MPTP (M325913) was from Toronto Research Chemicals. […] 6-OHDA solution is sensitive to light and therefore it was kept in the dark. A stock solution of Acetaminophen (10 mM) was prepared and stored at −20° C. At the time of toxin assay, the stock solution was diluted to 100 μM final concentration.
(§1) All assays with toxins were done using L1 stage worms. Synchronized L1 worms were exposed to toxin solutions for different time periods with mild shaking on a rotating platform. At the end of the time period, tubes were briefly centrifuged to remove drug solution and worm pellets were diluted with […] and were plated on normal NG agar plates.
(§2) Experimental design was as described Rezai et al., ibid. Electric field was fixed at 3V/cm. Then, the direction of the electric field was changed and the worm was allowed to move the same distance in the opposite direction. The movement of each worm was recorded using a Nikon Coolpix P5100, NY, USA. The captured videos were analyzed using the ImageJ NIH image module. Three parameters—U-turn, head movement and speed—were used to characterize the behaviour of animals. For U-turn, the time (in seconds) that was taken by a moving worm to come to a stop and turn to the opposite direction after the electric field direction was reversed was recorded. Most wild type worms (˜90%, see results) were able to change direction in less than 10 seconds. Worms taking 10 sec or longer were considered to have an abnormal response. For the head movement analysis, the number of full sine waves (i.e., spanning up to three-fourth of the channel width) that a worm makes within a 30 sec. duration were determined. Wild-type worms make full sine waves in majority of cases with failures typically being less than 25%. Therefore, a threshold of 25% to place a worm in normal or abnormal category was used. […] To analyze speed, the time taken by a worm to move a distance of 5000 μm in a given direction was used. Speed was measured in both directions of movement and the average value was used as a true response. Wild type animals typically moved with a speed of 215 μm/sec and above. Therefore, animals moving slower than 215 μm/sec were considered to have an abnormal response.

DA neurons = test: toxin-induced degeneration of DA neurons in dat-1p::yfp transgenic animals
From the text: In some cases, the entire dendritic processes were missing.

C. elegans [2] = conditions: for movement defects on plate: lowered concentration and exposure time, slow reaction when touched on head or tail
Method: as §1
These phenotypes are in agreement with published studies.

C. elegans [3] = test: channel-based drug-screening assay: acetaminophen pre-treatment against neurotoxins (electrotaxis)
Method: The toxins 6-OHDA (catalog no. 162957), Rotenone (catalog no. R8875) and Acetaminophen (catalog no. A7085) were obtained from Sigma Aldrich. MPTP (M325913) was from Toronto Research Chemicals. Desired concentrations of 6-OHDA (100 μM), MPTP (700 μM) and Rotenone (25 μM) were prepared in M9 one day before the assay and stored at −20° C. 6-OHDA solution is sensitive to light and therefore it was kept in the dark. A stock solution of Acetaminophen (10 mM) was prepared and stored at −20° C. At the time of toxin assay, the stock solution was diluted to 100 μM final concentration.
as §2
In order to establish a baseline to screen for neuroprotective compounds in a channel-based assay, the neuroprotective effect of acetaminophen (a known analgesic) against neurodegeneration caused by toxinsas tested.
Pre-treatment of worms with acetaminophen (100 uM, 24 hrs exposure during L1 stage) prior to treatment with 6-0H DA as above, conferred a significant protection on the worms as evidenced by the electrotactic response of worms using all 3 movement parameters described above. The protection ranged from 30% to 50% (FIG. 34). […] The defect in head movement was decreased by 40% and U-turn by 30%. The impact of Acetaminophen on Rotenone-induced neuronal toxicity and provide first evidence that Acetaminophen protects DA neurons from the toxic effects of Rotenone. While the head movement defect was decreased by 20%, abnormalities in U-turn response and speed were lower by 50% and 38%, respectively.

NCCc1cc(O)c(O)cc1O [6-OHDA, 6-hydroxydopamine]
electrotactic response in channel (C. elegans [1]; 100 μM 6-OHDA for as little as 30 min): abnormal electrotactic response | electrotactic response in channel (C. elegans [1]; 5 mM 6-OHDA treated L1 animals): practically immobile and unresponsive to the electric field stimulus | U-turn defect, proportion of worms (C. elegans [1]; 6-OHDA 100 μM, within 4 hour exposure of L1 worms, electric field 3V/cm, abnormal = 10 sec or longer): 30-80% | defective head movement response, proportion of worms (C. elegans [1]; 6-OHDA, 30 minutes toxin exposure): about one-third | defective head movement response, proportion of animals (C. elegans [1]; 6-OHDA, 1 hr exposure): 50% | defective head movement response, proportion of worms (C. elegans [1]; 6-OHDA, 4 hour exposure): 61% | movement speed response of toxin-treated animals (C. elegans [1]): most defective response compared to the other 2 toxins | degeneration of DA neurons (DA neurons; 6-OHDA 100 μM for 4 hours): did not cause an obvious degeneration of DA neurons | animals with DA neuron (CEP dendritic process) defects (DA neurons; 6-OHDA 100 μM, longer exposure ~71 hrs): 15% | phenotype of treated L1 animals (C. elegans [2]; 5 mM 6-OHDA): extreme sluggishness, uncoordinated movement, protruding vulva, growth arrest and early larval lethality | weak uncoordinated phenotype, proportion of worms (plate) (C. elegans [2]; 6-OHDA, 30 min exposure): one-quarter | morphological defects on plate (C. elegans [2]; 6-OHDA, 4 hr exposure): morphological defects such as protruding vulva (Pvl) | uncoordinated phenotype, proportion of animals (plate) (C. elegans [2]; 6-OHDA, 4 hr exposure): 86%

CN1CC=C(c2ccccc2)CC1 [MPTP, 1-methyl 4-phenyl 1,2,3,6-tetrahydropyridine]
electrotactic response in channel (C. elegans [1]; 700 μM MPTP for up to 8 hrs): obvious defects in the channel assay | head movement defects, proportion of worms (C. elegans [1]; MPTP, 4 hr exposure): 80% | movement speed response of toxin-treated animals (C. elegans [1]): wild type response in all 3 conditions tested | appearance on NG agar plates (C. elegans [2]; 700 μM MPTP for up to 8 hrs): fairly active and healthy | phenotype of treated L1 worms (C. elegans [2]; 1.4 mM MPTP for 3 days): almost completely uncoordinated and paralyzed | movement defects on plate (C. elegans [2]): only subtle and low penetrant movement defects

C=C(C)[C@H]1Cc2c(ccc3c2O[C@@H]2COc4cc(OC)c(OC)cc4[C@@H]2C3=O)O1 [Rotenone]
electrotactic movement (C. elegans [1]; 25 μM Rotenone for 1-8 hr): abnormal electrotactic movement | defect in the speed of animals (C. elegans [1]; Rotenone exposure): 48% | abnormal head movement response, proportion of worms (C. elegans [1]; Rotenone, after 8 hrs of toxin exposure): up to 30% | appearance on the plate (C. elegans [2]; 25 μM Rotenone for 1-8 hr): largely healthy | morphology of exposed worms (C. elegans [2]; 25 μM rotenone for less than 12 hrs): morphological defects similar to MPTP | movement defects on plate (C. elegans [2]): only subtle and low penetrant movement defects

CC(=O)Nc1ccc(O)cc1 [acetaminophen]
decrease of U-turn defect (C. elegans [3]; MPTP): 30% | decrease of head movement defect (C. elegans [3]; MPTP): 40% | decrease of abnormalities in U-turn response (C. elegans [3]; Rotenone): 50% | decrease of abnormalities in speed (C. elegans [3]; Rotenone): 38% | decrease of head movement defect (C. elegans [3]; Rotenone): 20%

c1ccc([C@H]2CN3CCSC3=N2)cc1 [levamisole]
movement response in microfluidic channel (C. elegans [1]; 10 μM levamisole, only 5 worms tested): reduced movement
